Experimental findings from ChEMBL document CHEMBL4043292, “Discovery and Optimization of Phosphopantetheine Adenylyltransferase Inhibitors with Gram-Negative Antibacterial Activity” (J Med Chem, 2018) are described below.

Data set [1] can be described thus: in vitro. To be noted: human, Caco-2.
Description: Efflux ratio of apparent permeability across basolateral to apical over apical to basolateral side in human Caco2 cells
Data set [2] addresses T1, Bifunctional coenzyme A synthase (Homo sapiens) (UniProt Q13057).
T1 sequence (whole entry): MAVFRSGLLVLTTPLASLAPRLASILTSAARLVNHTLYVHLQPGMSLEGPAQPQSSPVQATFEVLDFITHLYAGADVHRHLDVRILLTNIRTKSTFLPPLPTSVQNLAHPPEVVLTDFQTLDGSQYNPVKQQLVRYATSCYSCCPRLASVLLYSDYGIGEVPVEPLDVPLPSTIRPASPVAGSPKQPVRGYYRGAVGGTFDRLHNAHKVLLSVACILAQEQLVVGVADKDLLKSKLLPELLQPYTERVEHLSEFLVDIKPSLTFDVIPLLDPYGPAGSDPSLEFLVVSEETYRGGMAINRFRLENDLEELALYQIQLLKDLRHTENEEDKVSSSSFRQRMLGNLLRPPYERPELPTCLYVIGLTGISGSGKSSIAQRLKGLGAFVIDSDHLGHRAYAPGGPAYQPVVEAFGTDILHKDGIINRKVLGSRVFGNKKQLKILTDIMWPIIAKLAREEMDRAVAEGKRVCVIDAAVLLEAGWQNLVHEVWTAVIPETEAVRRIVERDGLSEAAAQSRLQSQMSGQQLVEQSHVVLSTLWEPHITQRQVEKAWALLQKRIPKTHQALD
Description: Inhibition of human coaSY expressed in tolC deficient Escherichia coli JWK0002 assessed as bacterial growth inhibition after 20 hrs by broth microdilution method

The subject of data set [3] is Escherichia coli. Put plainly: Ratio of IC50 for PPAT in Escherichia coli BW25113 assessed as reduction in level of CoA-SH metabolite to IC50 for PPAT in tolC deficient Escherichia coli JW5503-1 assessed as reduction in level of CoA-SH metabolite.
Data set [4] concerns Pseudomonas aeruginosa. Put plainly: microbe, parasite or virus in culture. The following applies: K1119, 20 h.
Description: Antibacterial activity against mexAB deficient Pseudomonas aeruginosa K1119 after 20 hrs by broth microdilution method
The subject of data set [5] is Escherichia coli. Put plainly: microbe, parasite or virus in culture. The following applies: RFM795, 20 h.
Description: Antibacterial activity Escherichia coli RFM795 harboring frame deletion of 23 amino acids in lptD gene after 20 hrs by broth microdilution method
A short description of data set [6]: physchem. To be noted: buffer, pH 7.4.
Description: Lipophilicity, log D of the compound at pH 7.4
The test system of data set [7] is Pseudomonas aeruginosa. The experiment in a line: microbe, parasite or virus in culture. To be noted: ATCC 35151, 20 h.
Description: Antibacterial activity against Pseudomonas aeruginosa ATCC 35151 after 20 hrs by broth microdilution method
Data set [8] relates to Escherichia coli. The experiment in a line: microbe, parasite or virus in culture. The following applies: JW0451-2, 20 h.
Description: Antibacterial activity against acrB deficient Escherichia coli JW0451-2 after 20 hrs by broth microdilution method
For data set [9], the system named is Escherichia coli. The experiment in a line: microbe, parasite or virus in culture. The following applies: JW5503-1, 20 h.
Description: Antibacterial activity against tolC deficient Escherichia coli JW5503-1 after 20 hrs by broth microdilution method
Data set [10] is described as follows: in vitro. The following applies: human, Caco-2. This is another data set of the same source.
A short description of data set [11]: Inhibition of PPAT in Escherichia coli BW25113 assessed as reduction in level of CoA-SH metabolite by mass spectrometric method.
Data set [12] has as its system Escherichia coli. The experiment in a line: microbe, parasite or virus in culture. The following applies: BW25113, 20 h.
Description: Antibacterial activity against Escherichia coli BW25113 after 20 hrs by broth microdilution method
Data set [13] in a line: in vitro. To be noted: human, not told.
Description: Efflux ratio in human microsomes
Data set [14] can be described thus: physchem. The following applies: PBS.
Description: Solubility of the compound in PBS
Data set [15] concerns Pseudomonas aeruginosa. The experiment in a line: microbe, parasite or virus in culture. The following applies: PAO1, 20 h.
Description: Antibacterial activity against Pseudomonas aeruginosa PAO1 after 20 hrs by broth microdilution method
The nature of data set [16]: Inhibition of PPAT in tolC deficient Escherichia coli JW5503-1 assessed as reduction in level of CoA-SH metabolite by mass spectrometric method.

Values after ≈ are worked out from the molar mass of the structure shown.

Regarding `COC(=O)N1CCC(Oc2cccc([C@@H](CC#N)Nc3nc4nc(C)ccc4[nH]3)c2)CC1`, the efflux ratio – broadly, a quotient of directional permeabilities that is used to spot active efflux – in the data set “in vitro [1]” came out at 48; in “in vitro [13]”, 0.44. The MIC is over 128 µg/mL in [2]; 128 µg/mL (≈ 295 µM) in the data set on Pseudomonas aeruginosa [4]; 8 µg/mL (≈ 18.4 µM) against Escherichia coli [5]; 128 µg/mL (≈ 295 µM) against Pseudomonas aeruginosa [7]; 32 µg/mL (≈ 73.6 µM) in the data set with Escherichia coli [8]; 0.25 µg/mL (≈ 0.575 µM) with Escherichia coli [9]. Moreover, the MIC in the data set on Escherichia coli [12] and against Pseudomonas aeruginosa [15] was over 128 µg/mL in each case. Also, in the data set with Escherichia coli [3], the Ratio IC50 is 500. Also, the logD (as a rule, the decadic logarithm of the distribution of all forms, ionised or not, between an organic phase and buffer at a given pH) in the data set “physchem [6]” worked out at 3. Moreover, in the data set “in vitro [10]”, the Papp A→B – broadly, the apparent permeability from the apical to the basolateral side of a cell layer – was 1 ×10⁻⁶ cm/s. Besides, the IC50 (commonly the concentration needed to halve the response being measured) in [11] worked out at 11.9 µM; in data set [16], 24 nM. Moreover, in “physchem [14]”, the concentration in solution (solubility) came to 264 µg/mL (≈ 608 µM).
Consider `Cc1ccc2[nH]c(N[C@H](CC#N)c3cccc(Cl)c3)nc2n1`, for which, in the data set on Escherichia coli [3], the Ratio IC50 was found to be 13. In addition, the figures for the MIC in the data set with Escherichia coli [9] and with Escherichia coli [12] were 4 µg/mL (≈ 12.8 µM) and over 128 µg/mL, respectively. Moreover, the values for the IC50 in data set [11] and in data set [16] were 4.76 µM and 370 nM, respectively.
As for `COC(=O)N1CCC(Oc2cccc([C@@H](CC#N)Nc3nc4nc(C)cc(N5CCN(C)CC5)c4[nH]3)c2)CC1`, the MIC in data set [2] was over 128 µg/mL; with Pseudomonas aeruginosa [4], over 128 µg/mL; in the data set with Escherichia coli [5] it was 64 µg/mL (≈ 120 µM); in the data set with Pseudomonas aeruginosa [7] it was over 128 µg/mL; with Escherichia coli [8], 64 µg/mL (≈ 120 µM); in the data set with Escherichia coli [9], 4 µg/mL (≈ 7.51 µM). Moreover, the MIC in the data set with Escherichia coli [12] and in the data set on Pseudomonas aeruginosa [15] was over 128 µg/mL each time. In addition, the efflux ratio in the data set “in vitro [13]” turned out to be 0.56.
For the compound `Cc1cc(N2CCN(C)CC2)c2[nH]c(N[C@H](CC#N)c3cccc(Cl)c3)nc2n1`, the MIC in [2] was 128 µg/mL (≈ 312 µM); with Pseudomonas aeruginosa [4], over 128 µg/mL; in the data set with Escherichia coli [5], 8 µg/mL (≈ 19.5 µM); in the data set on Pseudomonas aeruginosa [7], 128 µg/mL (≈ 312 µM); with Escherichia coli [8] it was 8 µg/mL (≈ 19.5 µM); against Escherichia coli [9], 2 µg/mL (≈ 4.88 µM). The MIC is 64 µg/mL (≈ 156 µM) with Escherichia coli [12] and over 128 µg/mL against Pseudomonas aeruginosa [15].
Take `COC(=O)N1CCC(Cc2cccc([C@@H](CC#N)Nc3nc4nc(C)ccc4[nH]3)c2)CC1`: the figures for the efflux ratio in the data set “in vitro [1]” and in “in vitro [13]” were 18 and 0.77, respectively. Further, the MIC in [2] was 128 µg/mL (≈ 296 µM); in the data set on Pseudomonas aeruginosa [4], 32 µg/mL (≈ 74 µM); against Escherichia coli [5], 2 µg/mL (≈ 4.62 µM); in the data set with Escherichia coli [8], 16 µg/mL (≈ 37 µM); against Escherichia coli [9], at most 0.125 µg/mL; in the data set on Escherichia coli [12] it was 128 µg/mL (≈ 296 µM). Besides, the MIC in the data set on Pseudomonas aeruginosa [15] was over 128 µg/mL. For the same compound, the logD in the data set “physchem [6]” is 2.8. The Papp A→B in “in vitro [10]” is 2.3 ×10⁻⁶ cm/s. Besides, the concentration in solution in “physchem [14]” (solubility) was 158 µg/mL (≈ 365 µM).
